Experimental findings from ChEMBL document CHEMBL2073989, “Immunohistochemical distribution and functional characterization of an organic anion transporting polypeptide 2 (oatp2)” (FEBS Lett, 1999) are described below.

In the data set the target is T1, Solute carrier organic anion transporter family member 1A4 (Rattus norvegicus, UniProt O35913).
T1 sequence (O35913 whole entry): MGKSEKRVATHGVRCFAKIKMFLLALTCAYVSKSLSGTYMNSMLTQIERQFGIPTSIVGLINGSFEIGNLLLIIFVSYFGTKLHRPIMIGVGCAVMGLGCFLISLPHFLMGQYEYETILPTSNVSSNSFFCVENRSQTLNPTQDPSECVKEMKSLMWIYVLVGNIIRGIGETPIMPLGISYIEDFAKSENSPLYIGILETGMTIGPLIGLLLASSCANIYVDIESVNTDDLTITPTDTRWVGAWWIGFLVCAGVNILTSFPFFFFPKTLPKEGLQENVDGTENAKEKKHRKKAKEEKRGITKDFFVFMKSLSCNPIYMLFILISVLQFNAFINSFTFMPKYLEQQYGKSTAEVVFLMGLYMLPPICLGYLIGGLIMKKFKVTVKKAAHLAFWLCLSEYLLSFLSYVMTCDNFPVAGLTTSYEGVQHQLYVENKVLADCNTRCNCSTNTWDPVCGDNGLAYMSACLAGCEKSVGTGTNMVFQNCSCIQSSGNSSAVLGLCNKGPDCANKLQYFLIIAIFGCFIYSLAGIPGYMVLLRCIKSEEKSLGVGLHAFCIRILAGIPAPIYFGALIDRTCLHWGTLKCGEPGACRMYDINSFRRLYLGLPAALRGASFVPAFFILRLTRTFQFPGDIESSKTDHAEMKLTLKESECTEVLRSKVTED
The data set can be described thus: TP_TRANSPORTER: uptake in Xenopus laevis oocytes. In kind it is functional, cell-based. The conditions noted are these: oocyte.

For `O=C(O)CCCC[C@@H]1SC[C@@H]2NC(=O)N[C@@H]21` [BIOTIN], the Activity result is “substrate [+]”.
